The values below come from patent publication US10100307B2, “Use of a reverse-transcriptase inhibitor in the prevention and treatment of degenerative diseases” (Centre National de la Recherche Scientifique, priority 2014, dated 2018).

Experiment [1] concerns primary midbrain neurons. The experiment can be described thus: Formation of DNA breaks induced by transfection with a plasmid (wt L1) overexpressing LINE-1. It is filed as cell-based, mouse. To be noted: Stavudine 10 μM added 24 hours before and during lipofection; FIG. 2B; ***p<0.001, n=6.
Experimental: (§1) Embryonic midbrain neurons (embryonic day 13.5) are cultured in NBGK medium (Neurobasal® (Life Technologies) supplemented with glutamine (500 μM, SIGMA), glutamic acid (3.3 mg/ml, SIGMA), aspartic acid (3.7 mg/ml, SIGMA), anti-anti and B27® (GIBCO)). A midbrain neuron culture was incubated overnight in the presence of Stavudine (10 μM in 0.9% NaCl). A control culture was treated under the same conditions, with a solution of NaCl (0.9%). The following day, the culture medium was replaced with Neurobasal® medium (Life Technologies) not supplemented with B27® (Life Technologies), containing 5 μM of H2O2 and 10 μM Stavudine/NaCl, for 1 h (FIG. 2). Alternatively, the cells were treated with H2O2 (100 μM) in the presence of B27 for one hour. Stavudine (10 μM) was added twice, 24 hours before and during treatment with H2O2 or lipofection (FIG. 2). The neurons were then fixed with PBS 4% paraformaldehyde (PFA) for 20 min, then treated with glycine (100 mM) in PBS for 10 min. […] The number of gamma-H2AX foci per neuron was counted on several slides, then the mean was taken over more than 30 neurons. […]
The test system of experiment [2] is Mouse embryonic midbrain neurons. The experiment is described as follows: Formation of DSBs (gamma-H2AX foci per neuron) induced by H2O2 oxidative stress in vitro. To be noted: Stavudine 10 μM; gamma-H2AX labeling; H2O2 for 1 h; FIG. 2A; ***p<0.001, n=6. It is filed as cell-based.
Experimental: as §1
Mouse embryonic midbrain neurons (14 days' gestation), treated or untreated with an RT inhibitor (Stavudine), were subjected to an oxidative stress by addition of H2O2. […] The number of DSBs per neuron was evaluated after γ-H2AX labeling.
For experiment [3], the system named is TH+ neurons in the substantia nigra pars compacta. The experiment is described as follows: 6-OHDA injection into the substantia nigra (oxidative stress in vivo), stereological count of TH+ neurons. Also noted: species or system mice. The following applies: 24 h after injection of 6-OHDA; Stavudine 10 μM injected 30 min before and with 6-OHDA; FIG. 3B; **p<0.01, n=5. As for the experimental part:
For the 6-OHDA (6-hydroxydopamine) injections, anesthetized mice were placed on a stereotactic device and a burr hole was drilled in the cranium, 3.3 mm caudally and 1 mm laterally from the bregma. The needle of the syringe was aligned over the hole and descended 4 mm from the surface of the cranium, and 6-OHDA (2 μl; 0.8 μg/μl Sigma) or control (NaCl 0.9%) was injected into the SNpc for more than 4 min. For the immunohistological analysis, the mice were sacrificed 6 h, 24 h or 7 days after 6-OHDA injection. For the qRT-PCR analyses, tissues from the SNpc 6 h after 6-OHDA injection were obtained by extracting 1 mm samples from 2 mm thick disks of frozen tissue, using a stereotactic apparatus. The tissues were embedded in OCT, frozen in cooled isopentane, then preserved at -80° C. before being sectioned. 20 μm thick sections of the brain at the SNpc were made. […] The labeled brain sections were visualized using a confocal fluorescence microscope (SP5, Leica). […] The microscopy images were analyzed using the VisioScan T4.18 software (ExploraNova, La Rochelle, France) as described previously ([…]. 2003). The cell numbers were quantified stereologically on sections spaced apart regularly covering all of the rostrocaudal extent of the substantia nigra, using the VisioScan stereology tool. […]

On to `Cc1cn([C@H]2C=C[C@@H](CO)O2)c(=O)[nH]c1=O` [Stavudine, 2′-3′-didehydro-2′-3′-dideoxythymidine], for which, in experiment [1], the “formation of DNA breaks induced by wt L1 plasmid overexpressing LINE-1” value is “suppressed”. The “reduction of the formation of DSBs induced by H2O2” value in experiment [2] worked out at 40%. Also, the “number of TH+ neurons in the substantia nigra pars compacta (cell death after oxidative stress in vivo)” value in experiment [3] is on record as “higher”.
